Experimental data taken from patent publication US8420606B2, “Method of utilizing physiological activity of rare saccharide and composition containing rare saccharide” (priority 2002, dated 2013).
Values belong to the molecule of their own block, whether it stands above or below them.

Key:
[1] = tested on: glutamate release from hippocampus; experiment: temporary brain ischemia, glutamate outside hippocampus neurons by micro-dialysis; format: in vivo, gerbil; conditions: pre-administration; compared with effect of D-allose
Description: (2) Method: The bilateral common carotid artery of a gerbil was shut off for 5 minutes. After 1 week, the gerbil was sacrificed and a sample was prepared in accordance with the ordinary method, followed by hematoxyline eosin dyeing. The survival rate was measured by counting the number of hippocampus neurons while looking at them under a microscope. Experiments were performed on a normal control group, a group subjected to only ischemia, and a group administrated with 200 mg/kg of D-allose or D-psicose before ischemia. It is known that glutamates released in large amount from the neurons with ischemia are toxic to the neurons. Such a point was examined by fixing the gerbil to a brain position fixing device, perfusing a solution, in which oxidase glutamate is dissolved, to the hippocampus through a probe for micro-dialysis, and measuring the glutamate concentration outside the hippocampus neurons. Also, the inventors have clarified the relationship between the metabolism of glucose and the action mechanism of D-allose with ischemia by pre-administrating D-allose and 2-deoxiglucose.

HL-60 = experiment: blood-system cancer cell strain proliferation, Coulter Counter, HL60; format: cell-based; conditions: 0.05-50 mM, 7 days, D-glucose control
Description: (§1) (2) Method: Total 6 kinds of cell strains, i.e., Myeloid (HL-60, THP-1, KG-1), T-cell (MT-2), and B-Cell (Daudi, KS-1), and 3 kinds of rare saccharides (i.e., D-psicose, D-altrose, and D-allose), were employed. The culture medium and the cells were prepared to be 1 mL in total and 1×10^5 in number, respectively. Then, the cell number at each of fourth day and seventh day was counted by using a Coulter Counter. Each rare saccharide was added at concentrations of 0.05, 0.5, 5 and 50 mM, while D-glucose was used as a control.
(§2) Culture Medium: FBS 10% added RPMI1460
(§3) Cultivation Conditions: 37° C., 5% CO2
(§4) Cultivation Vessel: FALCON, MULTIWELL, 12 wells
(§5) Number of Cultivation Days: 7 days
(§6) Saccharides Concentration: 0.05, 0.5, 5, 50 mM

[2] = tested on: ovary cancer cells (OVCAR3); experiment: proliferation of cultured cells, MTT method, OVCAR3; format: cell-based; conditions: saccharide 50 mM, 4 to 5 days, MTT
Description: (§7) Various kinds of rare saccharides were added at a concentration of 50 mM to culture media under the following conditions, and an influence of each rare saccharide upon the progress of proliferation of cancer cell strains was examined.
(§8) (1) Target cells to which the rare saccharides were added: Hepatic cancer cells (HepG2), uterine cancer cells (He1a), ovary cancer cells (OVCAR3), and skin keratinocyte (HaCaT) were selected as target cells to which the rare saccharides were added.
(§9) (2) Rare saccharides added: In addition to D-allose, glucose and D-altros as rare saccharides belonging to ketose were added, as other comparative saccharides, to the addition target cells. Also, D-fructose was employed as a control.
(§10) (3) Experiment method: A number 3,000-5,000 of addition target cells per type were inoculated into a multi-well plastic dish (hereinafter referred to as a “well”) having 96 wells, and were cultured for 4 to 5 days in a culture medium supplemented with 5 to 10% of Fetal Bovine Serum (FBS) depending on the cell types. D-Allose, D-glucose and D-altros were each added at concentration of 50 mM to the addition target cells per type. Similarly, D-fructose as a control was added at a concentration of 50 mM. To examine the influence upon the cell proliferation, the cell number was measured in units of 24 hours by using the MTT method described below.
(1) Preparation of reagents: A predetermined amount of MTT (tetrazolium salt) was dissolved in PBS(−) sterilized in an autoclave to obtain an MTT solution through filtering and sterilization. An acidic solution was prepared by adding 50 mL of N,N-dimethylformaldehyde and water to a predetermined amount of (20 g) of SDS, thereby obtaining a 100 mL of solution. About […] of 1N hydrochloric acid was added to the solution for adjustment of a pH-value to 4.7. The solution was preserved at room temperature and warmed up to 37° C. just before the use.
(2) Test method: The cells were treated with TEP to prepare a cell suspension liquid. This cell suspension liquid was pipetted in a predetermined cell-density (300 to 52000 cells/well) to each well (96-well plate: 0.1 mL of culture medium per well). The saccharide as a drug was added in a predetermined amount to each well, followed by cultivation for a whole day and night in a CO2 incubator. Then, 0.5 mg/mL of the MTT solution was added and the resulting culture was incubated for 4 hours in the incubator. Thereafter, the culture medium was completely removed. Then, in a room kept at 37° C., an acid solution was added in amount of 0.1 mL/well. The well plate was placed on a micro-plate mixer and shaken at 37° C. for 20 minutes to dissolve a colored substance (namely, to dissolve “formazan” in the acid solution). The absorbance of the liquid was measured at a wavelength of 570 to 600 nm by using a spectrophotometer. After dissolving the colored substance (formazan) in the acid solution, the absorbance can be measured directly by a plate reader.
(1) Experiment method: The ovary cancer cells (OVCAR3) were selected as target cells to which a rare saccharide was added, and D-allose as the saccharide was added at concentrations of 1 mM, 5 mM, 10 mM, 20 mM, 50 mM and 100 mM. The experimental conditions, such as the method of culturing the ovary cancer cells (OVCAR3) and the method of measuring the cell number (MTT method), were the same as those in Example 1.

[3] = tested on: Rat leukocyte (granulocyte); experiment: production of active oxygen from leukocyte, LO12 chemiluminescence, zymosan; format: cell-based; conditions: saccharide 10 mM added to the producing system, zymosan
Description: Influences of various kinds of rare saccharides upon production of active oxygen from leukocyte were examined under the conditions given below. In this Example 5, an effect against the production of active oxygen from leukocyte was examined with LO12 chemiluminescence.
(1) Target leukocyte to which the rare saccharides were added: Rat leukocyte (granulocyte) was used.
(2) Rare saccharides added: In addition to D-allose as a rare saccharide belonging to aldose, D-psicose and D-altros as rare saccharides belonging to ketose and D-tallitol belong to polyol were added as other comparative saccharides. Further, D-glucose and D-fructose were employed as saccharides abundant in the natural world.
(3) Experiment method: (1) Changes over time in production of active oxygen from rat leukocyte . . . The time-dependent progress in production of active oxygen caused by adding zymosan particles to rat leukocyte (granulocyte) was examined. Also, the time-dependent progress in production of active oxygen caused under the presence of each of the rare saccharides was examined.
(2) Influences of rare saccharides upon production of active oxygen . . . By adding the various saccharides to the system for producing active oxygen from leukocyte, the amount of produced active oxygen was measured for each saccharide. The concentration of each of the added rare saccharides was set to 10 mM. Also, the measurement was made under the condition without addition of any saccharides.
(3) Effect of rare saccharides upon production of active oxygen . . . The rare saccharides were each added at concentration of 10 mM after the start of phagocytosis and the start of the production of active oxygen subsequent to addition of zymosan to leukocyte.
(4) Concentration dependency of active-oxygen production inhibitory effect of D-allose . . . Concentration dependency of the active-oxygen production inhibitory effect of D-allose was examined. D-allose was added at concentration of 0 mM, 5 mM and 10 mM.

[4] = tested on: skin keratinocyte (HaCaT); experiment: proliferation of cultured cells, MTT method, HaCaT; format: cell-based, human; conditions: saccharide 50 mM, 4 to 5 days
Description: as §7, §8, §9
(3) Experiment method: A number 3,000-5,000 of addition target cells per type were inoculated into a multi-well plastic dish (hereinafter referred to as a “well”) having 96 wells, and were cultured for 4 to 5 days in a culture medium supplemented with 5 to 10% of Fetal Bovine Serum (FBS) depending on the cell types. […] To examine the influence upon the cell proliferation, the cell number was measured in units of 24 hours by using the MTT method described below. […]
(2) Test method: The cells were treated with TEP to prepare a cell suspension liquid. […] The absorbance of the liquid was measured at a wavelength of 570 to 600 nm by using a spectrophotometer. […]

[5] = tested on: Hepatic cancer cells (HepG2); experiment: proliferation of cultured cells, MTT method, HepG2; format: cell-based, human; conditions: saccharide 50 mM, 4 to 5 days
Description: as §7, §8, §9, §10
(1) Preparation of reagents: A predetermined amount of MTT (tetrazolium salt) was dissolved in PBS(−) sterilized in an autoclave to obtain an MTT solution through filtering and sterilization. An acidic solution was prepared by adding 50 mL of N,N-dimethylformaldehyde and water to a predetermined amount of (20 g) of SDS, thereby obtaining a 100 mL of solution. […]
(2) Test method: The cells were treated with TEP to prepare a cell suspension liquid. […] The absorbance of the liquid was measured at a wavelength of 570 to 600 nm by using a spectrophotometer. After dissolving the colored substance (formazan) in the acid solution, the absorbance can be measured directly by a plate reader.

Daudi = experiment: blood-system cancer cell strain proliferation, Coulter Counter, Daudi; format: cell-based; conditions: 0.05-50 mM, 7 days, D-glucose control
Description: as §1, §2, §3, §4, §5, §6

human albumin = human albumin (Homo sapiens, UniProt P02768); experiment: saccharification (glycation) of albumin, glycoalbumin reagent; format: biochemical; conditions: albumin 3 g/dl
Description: (2) Method: After fragmenting albumin into amino acids by using protease K, i.e., glycoalbumin (GA) measurement reagent (made by Oriental Yeast Co., Ltd.), glycolysine was measured by using ketoamine oxydase (see FIG. 38). Glycation of human albumin with various rare saccharides was examined. A sample was prepared through the steps of dissolving 3 g/dl of pure human albumin in PBS and then dissolving each of the rare saccharides so as to prepare a solution in final concentration of 55.5 mM. The prepared solution was filtrated with a filter of 0.25 μm mesh and sterilized, followed by incubation at 37° C. for 7 days. During the incubation, the GA concentration (glycolysine concentration) was measured at intervals of exactly 24 hours. Further, similar experiments were conducted by adding each of the rare saccharides in an albumin solution (final concentration 3 g/dl) and a glucose solution (final concentration 55.5 mM) so that each of the rare saccharides had final concentration of 55.5 mM.

[6] = saccharide 55.5 mM, 37° C., 7 days

Chain of human albumin (P02768 25-609): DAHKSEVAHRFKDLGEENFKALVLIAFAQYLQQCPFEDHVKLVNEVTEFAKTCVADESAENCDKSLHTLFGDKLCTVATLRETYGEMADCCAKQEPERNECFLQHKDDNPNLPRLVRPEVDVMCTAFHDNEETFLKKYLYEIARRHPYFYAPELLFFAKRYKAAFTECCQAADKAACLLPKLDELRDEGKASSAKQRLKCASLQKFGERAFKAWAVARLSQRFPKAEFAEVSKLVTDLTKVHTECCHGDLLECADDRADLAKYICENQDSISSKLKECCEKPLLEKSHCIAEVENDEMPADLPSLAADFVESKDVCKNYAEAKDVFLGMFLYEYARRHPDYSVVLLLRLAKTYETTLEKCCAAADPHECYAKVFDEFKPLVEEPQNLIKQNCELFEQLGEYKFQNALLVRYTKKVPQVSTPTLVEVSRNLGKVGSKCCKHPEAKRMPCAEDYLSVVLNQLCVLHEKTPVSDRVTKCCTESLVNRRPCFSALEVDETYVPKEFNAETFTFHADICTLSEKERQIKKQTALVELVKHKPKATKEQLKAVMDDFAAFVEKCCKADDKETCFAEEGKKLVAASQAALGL

Structure (SMILES): O=CC[C@@H](O)[C@H](O)[C@H](O)CO [2-deoxyglucose, reference compound]
glutamate release inhibitory effect [1]: similarly observed

Structure (SMILES): O=C[C@@H](O)[C@H](O)[C@H](O)[C@H](O)CO [D-altrose, reference compound]
HL60 proliferation inhibitory effect (HL-60): showed no effect
proliferation of OVCAR3 cells (cell number over time) [2]: weaker than that of D-allose
production of active oxygen from leukocyte [3]: No inhibitory effect
proliferation of HaCaT cells (cell number over time) [4]: inhibitory effect at a medium level
proliferation of HepG2 cells (cell number over time) [5]: weaker than that of D-allose
Daudi-cell proliferation inhibitory effect (Daudi): showed no effect

glycation (saccharification) of albumin (human albumin; [6]): do not cause the saccharification
Structure (SMILES): O=C(CO)[C@@H](O)[C@H](O)[C@H](O)CO [D-fructose, reference compound]

saccharification rate of albumin under coexistence with glucose (human albumin; saccharide 55.5 mM + D-glucose 55.5 mM): about 100 μmol/day
saccharification rate of albumin (human albumin; [6]): about 50 μmol/day
Structure (SMILES): O=C[C@@H](O)[C@@H](O)[C@H](O)[C@H](O)CO [D-mannose, reference compound]

Structure (SMILES): OC[C@@H](O)[C@H](O)[C@H](O)[C@H](O)CO [D-tallitol, reference compound]
production of active oxygen from leukocyte [3]: No inhibitory effect
